# Measurements: patent US20230087118A1, “IMIDAZO[1,2-a][sequence] DERIVATIVES AND THEIR USE IN THE TREATMENT OF DISEASE” (priority 2019, published 2023)
# Where a name gives a salt, the structure may show the parent alone.
# Biological target: T1, IRAK4 (Homo sapiens, UniProt Q9NWZ3)
# T1 sequence (Q9NWZ3 1-460): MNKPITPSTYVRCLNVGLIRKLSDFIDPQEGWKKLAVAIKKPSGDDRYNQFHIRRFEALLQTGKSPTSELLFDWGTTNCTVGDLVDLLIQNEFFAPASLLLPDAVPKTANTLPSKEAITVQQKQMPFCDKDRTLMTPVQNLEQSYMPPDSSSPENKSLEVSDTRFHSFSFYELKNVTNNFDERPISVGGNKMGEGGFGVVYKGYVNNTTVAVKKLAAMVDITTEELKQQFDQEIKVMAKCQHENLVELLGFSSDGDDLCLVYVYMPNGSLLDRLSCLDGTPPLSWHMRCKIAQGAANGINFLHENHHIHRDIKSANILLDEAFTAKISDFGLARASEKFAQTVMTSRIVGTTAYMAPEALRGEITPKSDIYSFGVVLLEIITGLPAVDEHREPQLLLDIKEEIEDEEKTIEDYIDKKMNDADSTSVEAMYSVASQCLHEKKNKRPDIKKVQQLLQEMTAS
# Assay: biochemical
# Settings: not given
row,Structure (SMILES),IC50 [µM]
1,"Cc1cnc2c(NC(=O)c3cn4cc(C56CCC(C)(C5)OC6)nc4nc3OC(C)C)cnn2c1 (centres unmarked) [Example 569, 7-Isopropoxy-2-(1-methyl-2-oxabicyclo[2.2.1]heptan-4-yl)-N-(6-methylpyrazolo[1,5-a]pyrimidin-3-yl)imidazo[1,2-a]pyrimidine-6-carboxamide]",0.0024
2,"Cn1ccc(NC(=O)c2cn3cc(C45CCC(C)(CC4)OC5)nc3cc2OC2CCC2)n1 [Example 570, 7-Cyclobutoxy-N-(1-methyl-1H-pyrazol-3-yl)-2-(1-methyl-2-oxabicyclo[2.2.2]octan-4-yl)imidazo[1,2-a]pyridine-6-carboxamide]",0.0004
3,"Cc1cnc2c(NC(=O)c3cn4cc(C56COC(C)(C5)C6)nc4nc3OC3CCC3)cnn2c1 [Example 575, 7-Cyclobutoxy-2-(1-methyl-2-oxabicyclo[2.1.1]hexan-4-yl)-N-(6-methylpyrazolo[1,5-a]pyrimidin-3-yl)imidazo[1,2-a]pyrimidine-6-carboxamide]",0.0007
4,"CC12CC(c3cn4cc(C(=O)Nc5ccn(C(F)F)n5)c(OCC5CC5)nc4n3)(CO1)C2 [Example 639, 7-(Cyclopropylmethoxy)-N-(1-(difluoromethyl)-1H-pyrazol-3-yl)-2-(1-methyl-2-oxabicyclo[2.1.1]hexan-4-yl)imidazo[1,2-a]pyrimidine-6-carboxamide]",0.0181
5,"CC(C)Oc1nc2nc(C34COC(C)(C3)C4)cn2cc1C(=O)Nc1cccc(-c2cnoc2)n1 [Example 640, 7-Isopropoxy-N-(6-(isoxazol-4-yl)pyridin-2-yl)-2-(1-methyl-2-oxabicyclo[2.1.1]hexan-4-yl)imidazo[1,2-a]pyrimidine-6-carboxamide]",0.0007
6,"CC12CCC(c3cn4cc(C(=O)Nc5cnc6cccnn56)c(OC5CCC5)cc4n3)(CO1)C2 (centres unmarked) [Example 649, 7-cyclobutoxy-N-(imidazo[1,2-b]pyridazin-3-yl)-2-(1-methyl-2-oxabicyclo[2.2.1]heptan-4-yl)imidazo[1,2-a]pyridine-6-carboxamide]",0.0002
7,"CC12CC(c3cn4cc(C(=O)Nc5cnc6cccnn56)c(OC5CCCC5)nc4n3)(CO1)C2 [Example 650, 7-(cyclopentyloxy)-N-(imidazo[1,2-b]pyridazin-3-yl)-2-(1-methyl-2-oxabicyclo[2.1.1]hexan-4-yl)imidazo[1,2-a]pyrimidine-6-carboxamide]",0.0001

# Now from value to molecule:
row,IC50 [µM],Structure (SMILES)
1,0.0004,"CC(C)Oc1cc2nc(C34CCC(C)(CC3)OC4)cn2cc1C(=O)Nc1cnn2cccnc12 [Example 572, 7-Isopropoxy-2-(1-methyl-2-oxabicyclo[2.2.2]octan-4-yl)-N-(pyrazolo[1,5-a]pyrimidin-3-yl)imidazo[1,2-a]pyridine-6-carboxamide]"
2,0.0018,"Cn1ccc(NC(=O)c2cn3cc(C45CCC(C)(C4)OC5)nc3cc2OC2CCCC2)n1 (centres unmarked) [Example 632, 7-(Cyclopentyloxy)-N-(1-methyl-1H-pyrazol-3-yl)-2-(1-methyl-2-oxabicyclo[2.2.1]heptan-4-yl)imidazo[1,2-a]pyridine-6-carboxamide]"
3,0.0045,"CC(C)Oc1cc2nc(C3CC3)cn2cc1C(=O)Nc1cccc(C#N)n1 [Example 638, N-(6-cyanopyridin-2-yl)-2-cyclopropyl-7-isopropoxyimidazo[1,2-a]pyridine-6-carboxamide]"

# Same assay, conditions: IRAK4 Biochemical Assay (1 mM ATP, 2 h) IC50 (μM), 1 mM ATP, 2 h, 100 pM IRAK4
row,Structure (SMILES),IC50 [µM]
1,"CC(C)Oc1cc2nc(C34CCC(C)(CC3)OC4)cn2cc1C(=O)Nc1ccn(C)n1 [Example 571, 7-Isopropoxy-N-(1-methyl-1H-pyrazol-3-yl)-2-(1-methyl-2-oxabicyclo[2.2.2]octan-4-yl)imidazo[1,2-a]pyridine-6-carboxamide]",0.0017
2,"Cc1cnc2c(NC(=O)c3cn4cc(C56CCC(C)(CC5)OC6)nc4cc3OC(C)C)cnn2c1 [Example 573, 7-Isopropoxy-2-(1-methyl-2-oxabicyclo[2.2.2]octan-4-yl)-N-(6-methylpyrazolo[1,5-a]pyrimidin-3-yl)imidazo[1,2-a]pyridine-6-carboxamide]",0.0018
3,"CC(C)Oc1cc2nc(C34CCC(C)(CC3)OC4)cn2cc1C(=O)Nc1cccn(C)c1=O [Example 574, 7-Isopropoxy-N-(1-methyl-2-oxo-1,2-dihydropyridin-3-yl)-2-(1-methyl-2-oxabicyclo[2.2.2]octan-4-yl)imidazo[1,2-a]pyridine-6-carboxamide]",0.0002
4,"Cn1cccc(NC(=O)c2cn3cc(C4CC4)nc3c(OCCF)n2)c1=O [Example 637, 2-Cyclopropyl-8-(2-fluoroethoxy)-N-(1-methyl-2-oxo-1,2-dihydropyridin-3-yl)imidazo[1,2-a]pyrazine-6-carboxamide trifluoroacetate]",0.0445
5,"CC(C)Oc1cc2nc(C34COC(C)(C3)C4)cn2cc1C(=O)Nc1cc(F)n(C)n1 [Example 641, N-(5-fluoro-1-methyl-1H-pyrazol-3-yl)-7-isopropoxy-2-(1-methyl-2-oxabicyclo[2.1.1]hexan-4-yl)imidazo[1,2-a]pyridine-6-carboxamide trifluoroacetate]",0.0062
6,"CC12CC(c3cn4cc(C(=O)Nc5cccn(C6CC6)c5=O)c(OC5CCC5)nc4n3)(CO1)C2 [Example 651, 7-Cyclobutoxy-N-(1-cyclopropyl-2-oxo-1,2-dihydropyridin-3-yl)-2-(1-methyl-2-oxabicyclo[2.1.1]hexan-4-yl)imidazo[1,2-a]pyrimidine-6-carboxamide]",0.0005
7,"CC(C)Oc1nc2nc(C34CCC(C)(CC3)OC4)cn2cc1C(=O)Nc1cccn(C)c1=O [Example 654, 7-isopropoxy-N-(1-methyl-2-oxo-1,2-dihydropyridin-3-yl)-2-(1-methyl-2-oxabicyclo[2.2.2]octan-4-yl)imidazo[1,2-a]pyrimidine-6-carboxamide]",0.0005

# Biological target: T1, IRAK4
# Assay: 2-hour 10 μM ATP Biochemical Assay (MesoScale Detection format; IRAK4 phosphorylation of biotin labeled IRAK1 activation loop peptide)
# Settings: 0.1 nM IRAK4
# Method: Compounds of the invention were assessed for their ability to inhibit IRAK4 activity. The inhibitory properties of the compounds of the invention described herein can be evidenced by testing in any one of the following assays.
# The 2-hour 10 μM ATP Biochemical Assay employs a MesoScale Detection (MSD) format. The kinase reaction is based on the IRAK4 phosphorylation of a biotin labeled peptide (IRAK1 activation loop sequence 360-389).
# The kinase reaction in 30 μl is carried out in wells of a 384 well polypropylene assay plate, with 0.1 nM IRAK4, 1.6 μM of biotinylated peptide substrate and 10 μM ATP in 50 mM Hepes, pH 7.5, 60 mM NaCl, 5 mM MgCl2, 0.25 mM MnCl2, 2 mM DTT, 0.01% BSA, and 1% DMSO (from compound DMSO stocks), for 2 hour at room temperature. The activity is quenched with 11 μl of 70 mM EDTA, pH 8.
# To detect the phosphorylated biotinylated peptide substrate, 30 μl of the quenched reaction mixture is added to equivalent wells of a 384 well streptavidin coated MesoScale plate (Meso Scale Discovery #L21SA-1). After a 1 hour incubation of the plate for 1 hour at room temperature with gentle mixing, the plate wells are washed 3 times with 50 mM Tris, pH 7.5, 150 mM NaCl, 0.02% Tween-20.
# A 25 μl volume of 1:500 anti-P-Threonine Rabbit polyclonal Antibody plus 1:500 Goat-anti-Rabbit Sulfo Tag Antibody (Meso Scale Discovery R32AB-1) in 50 mM Tris, pH 7.5, 150 mM NaCl, 0.02% Tween-20 plus 2% BSA is then added to each well. After a 1-hour incubation of the plate for 1 hour at room temperature with gentle mixing, the plate wells are washed, 3 times with 50 mM Tris, pH 7.5, 150 mM NaCl, 0.02% Tween-20. A 40 μl volume of 2× MSD Read Buffer (Meso Scale Discovery R92TC-1) is added to each well, and the plate is read immediately in an MSD Plate Reader (Meso Scale Discovery).
row,Structure (SMILES),IC50 [nM]
1,COc1cc2nc(C3CCOCC3)cn2cc1C(=O)N[C@@H]1COC[C@H]1F (racemic) [Example 123],741
2,COc1cc2nc(C3CCOCC3)cn2cc1C(=O)N[C@@]12CCC[C@@H]1C2 (racemic) [Example 149],794
3,COc1cc2nc(C3CCOCC3)cn2cc1C(=O)N[C@@H]1C[C@H]1C1CCC1 (racemic) [Example 154],412
4,COc1cc2nc(C3CCOCC3)cn2cc1C(=O)N[C@@H]1CCCC[C@H]1OC (racemic) [Example 155],230
5,COc1cc2nc(C3CCOCC3)cn2cc1C(=O)N[C@@H]1CCC[C@H](C2CC2)C1 (relative stereo) [Example 177],861

# Now from value to molecule:
row,IC50 [nM],Structure (SMILES)
1,32,COc1cccc(NC(=O)c2cn3cc(CC(C)C#N)nc3cc2OC)n1 (centres unmarked) [Example 12]
2,17,COc1cccc(NC(=O)c2cn3cc(C(C)(C)CC#N)nc3cc2OC)n1 [Example 13]
3,26,COc1cccc(NC(=O)c2cn3cc(C4(OC)CC4)nc3cc2OC)n1 [Example 14]
4,31,COc1cccc(NC(=O)c2cn3cc(CC4COCCO4)nc3cc2OC)n1 (centres unmarked) [Example 15]
5,8,COc1cccc(NC(=O)c2cn3cc(C4CC45CCOC5)nc3cc2OC)n1 (centres unmarked) [Example 16]
6,2,COc1cccc(NC(=O)c2cn3cc(C4CCC(OC)C4)nc3cc2OC)n1 (centres unmarked) [Example 17]
7,1,COc1cccc(NC(=O)c2cn3cc(C4CC5CCC(C4)O5)nc3cc2OC)n1 (centres unmarked) [Example 18]
8,6,COc1cccc(NC(=O)c2cn3cc(C45CC(C#N)(C4)C5)nc3cc2OC)n1 [Example 19]
9,3,COc1cccc(NC(=O)c2cn3cc(C45CC(C(F)F)(C4)C5)nc3cc2OC)n1 [Example 20]
10,25,COc1cccc(NC(=O)c2cn3cc(C4CCOC4)nc3cc2OC)n1 (centres unmarked) [Example 23]
